This note sets out measurements from patent publication US20080249043A1, “Methods and Compositions Involving Protein Kinase C-Delta” (priority 2004, published 2008).

What all share (format): cell-based
Assay [1] relates to mitochondria from HeLa cells. The assay can be described thus: tBid-binding capacity of mitochondria isolated from HeLa cells (FITC-tBid(G94E)). The conditions noted are these: 5 μM AD198 4 h, versus DMSO-treated control cells. On the procedure: (a) Increased tBid-binding capacity by AD198. Mitochondria were isolated from HeLa cells treated with 5 μM AD198 or DMSO as control for 4 h. Mitochondria (50 μg by protein) were incubated with 0, 10, 20, 60 and 100 ng/μl FITC-tBid(G94E) in total volume 50 μl for […] followed by washing to remove unbounded probes. The fluorescent intensity was quantified with Bio-Tek microplate reader. Error bars indicate standard deviations of three independent experiments. (b) Dose response with mitochondria. Various amounts of mitochondria in (a) were incubated with 10 ng/μl tBid(G94E)-FITC as in (a). The fluorescent intensity of the washed mitochondria was quantified with Bio-Tek microplate reader. (c) Expression of PLS3 or PLS3(T21D) in selected HeLa cells. […] The tBid-binding capacity of the mitochondria from each cells were analyzed as in (a). […] Mitochondria were isolated from cells in (c) and analyzed as in (b).
Analysis of the tBid-binding capacity of mitochondria—Isolated mitochondria were incubated with FITC-tBid(G94E) in 50 μl reaction buffer (250 mM sucrose, 20 mM HEPES, 10 mM KCl, 3 mM KH2PO4, 1.5 mM MgCl2, 1 mM EGTA, 0.5% mg/ml BSA, PH 7.4) for 30 min at room temperature. Mitochondria were pelleted at 10,000×g and washed extensively with the reaction buffer to remove unbound FITC-tBid(G94E) and the fluorescence intensity was quantified with Bio-Tek microplate reader.

Another assay has as its system HeLa cells. The experiment in a line: Apoptosis by PI staining and flow cytometry (subG1 population) in HeLa cells. On the procedure:
Cell culture, transfection and treatment—HeLa cells were cultured in Dulbecco's modified Eagle's medium (DMEM) containing 10% fetal bovine serum, 2 mM L-glutamine and penicillin (100 units/ml)-streptomycin (100 μg/ml) at 37° C. in a humidified 5% CO2 atmosphere. HeLa cells at 90% confluence were transfected with different mammalian expression vectors using Lipofectamin 2000 according to the manufacturer's protocol (Invitrogen Inc., Carlsbad, Calif.). At 24 h or 48 h after transfection, cells were treated with 1:100 dilution of AD198 that was dissolved in dimethyl sulfoxide (DMSO). For down-regulation of PLS3, HeLa cells at 50% confluence were transfected with siRNA against PLS3 or a scrambled control. At 48 h, cells were treated with AD198 for 16 h and harvested for flow cytometry. The whole cell lysate was extracted for analysis with Western blotting.
Analysis of apoptosis and determination of the transmembrane potential in mitochondria—Cell death was quantified by propidium iodide (PI) staining, followed by flow cytometry (Becton-Dickinson). HeLa cells were fixed in 0.5 ml cold 70% ethanol at −20° C. overnight. Cell pellet were resuspended in 300 μl of PBS containing 0.025 mg/ml PI, 0.05% Triton X-100, 0.1 mg/ml RNase A and incubated at room temperature for 30 min. The DNA content was evaluated by FACScan. For mitochondrial potential analysis, HeLa cells were incubated with MitoTracker Green at 37° C. for 20 min. The cells were collected and washed with PBS and analyzed by FACScan.
Cell culture, transfection, selection and treatment—HeLa cells were cultured in Dulbecco's modified Eagle's medium (DMEM) with 10% fetal bovine serum, 2 mM L-glutamine, 100 units/ml penicillin and 100 μg/ml streptomycin at 37° C. HeLa cells at 90% confluence were transfected with different mammalian expression vectors or siRNA using Lipofectamin 2000 according to the manufacturer's protocol (Invitrogen Inc., Carlsbad, Calif.). At 48 h after transfection, cells were incubated with 5 μM AD198 or dimethyl sulfoxide (DMSO) for 4 h or 16 h. After transfection, cells were selected with 1 mg/ml G418 for 2 wk. After corresponding mock-transfected cells were killed by G418, the concentration of G418 was decreased to 0.5 mg/ml and maintained for another 2 wk. The whole cell lysates or subcellular fractions were extracted for Western blotting analysis (Liu et al. (2003)).
Analysis of apoptosis—HeLa cells were harvested and fixed in 70% ethanol at −20° C. overnight. Cells were then washed with PBS and stained with 0.025 mg/ml propidium iodide (PI), 0.05% Triton X-100, 0.1 mg/ml RNase A for 30 min at room temperature. The DNA content was analyzed by FACScan (Becton-Dickinson), and the subG0/G1 population was used to represent apoptosis.

A further assay concerns PLS3. The experiment in a line: PLS3 threonine phosphorylation: Ni-bead pulldown of His-tagged PLS3, Western blot with PT antibody, HeLa cells. The conditions noted are these: HeLa cells with His-tagged PLS3, AD198 0, 2, 4 and 6 h. As to the method:
Pulldown of His-tagged proteins from transfected HeLa cells—Transfected HeLa cells were washed with ice-cold phosphate-buffered saline (PBS) and incubated in the lysis buffer (50 mM NaH2PO4, 500 mM NaCl, 20 mM imidazole, 1% Triton X-100, 20 mM 2-mercaptoethanol, pH8.0) for 5 min and sonicated briefly on ice. The lysates were centrifuged at 10,000×g for 10 min at 4° C. The supernatant was saved and the protein concentration was measured with the Bio-Rad protein assay (Bio-Rad Laboratories, Hercules, Calif.) and adjusted to same concentrations for each sample. The supernatants were incubated with Ni-beads on a shaker for 2 h at 4° C. Beads were then pelleted at 800×g for 2 min at 4° C. and washed with ice-cold wash buffer (50 mM NaH2PO4, 500 mM NaCl, 20 mM imidazole, 1% Triton X-100, pH8.0) for five times. Beads were resuspended in SDS sample buffer and analyzed by Western blotting.
Western blot analysis—Equal amounts of protein were analyzed by 10% SDS-PAGE and electrotransferred to Immobilon-P membranes (Millipore Corporation, Bedford, Mass.). Monoclonal PKC-δ, PT, and β-actin and polyclonal VDAC antibodies were used at 1:1,000 and polyclonal PLS3 antibody was used at 1:2,000 for immunoblotting. Secondary anti-mouse or anti-rabbit antibodies conjugated with horseradish peroxidase were used at 1:2,000 and incubated with the membrane for 1 h at room temperature. […]

Structures are written as SMILES.

In the case of `CCCCC(=O)OCC(=O)[C@]1(O)Cc2c(O)c3c(c(O)c2[C@@H](O[C@H]2C[C@H](NCc4ccccc4)[C@H](O)[C@H](C)O2)C1)C(=O)c1c(OC)cccc1C3=O` [AD198, N-benzyladriamycin-14-valerate], the “tBid-binding capacity of mitochondria” value in assay [1] is listed as “significantly higher tBid-binding capacity”. In addition, the AD198-induced apoptosis result in the assay on HeLa cells (HeLa cells expressing PLS3(T21A), 5 μM AD198, 16 h (FIG. 9)) is listed as “same degree of apoptosis as the control cells”. Further, the “percentage of AD198-induced apoptosis” value in the assay with HeLa cells (HeLa cells expressing wild-type PLS3, 5 μM AD198, 16 h (FIG. 9)) is recorded as 31%; in the assay with HeLa cells (control HeLa cells, 5 μM AD198, 16 h (FIG. 9)), 7%. The “apoptosis after AD198 treatment” value in the assay on HeLa cells (HeLa cells expressing wild-type PLS3, 5 μM AD198, 16 h (FIG. 11), DMSO 9%) came out at 43%; in the assay on HeLa cells (HeLa cells transfected with PLS3(T21D), 5 μM AD198, 16 h (FIG. 11), DMSO 17%), 27%; in the assay with HeLa cells (HeLa-control cells, 5 μM AD198, 16 h (FIG. 11), DMSO 6%), 22%. Besides, in the assay on HeLa cells (HeLa cells, AD198 1, 5 and 10 μM, 16 h), the “AD198-induced apoptosis when PKC-δ down regulated by siRNA” value is given as “less apoptosis was detected”. The “sensitivity to AD198-induced apoptosis of cells with overexpression of PLS3” value in the assay on HeLa cells (HeLa cells, three concentrations of AD198, 16 h, versus without PLS3 overexpression) was “more sensitive”. For the same compound, in the assay with HeLa cells (HeLa cells, versus scrambled siRNA control, 16 h), the “AD198-induced apoptosis in cells transfected with siRNA against PLS3” value is reported as “suppressed”. Further, the “threonine phosphorylation of PLS3” value with PLS3 is on record as “steadily increased”.
